The values below come from patent publication US20130045203A1, “Uses of Noscapine and Derivatives in Subjects Diagnosed with FAP” (EMORY UNIVERSITY, priority 2010, published 2013).

In general, pIC50 refers to the negative decadic logarithm of the IC50, by convention in mol/L. A low value points to a large IC50.

For series [1], the system named is WT MEFs. Description: FACS analysis of DNA content. The class given is cell-based, mouse. (In general: A flow cytometer gives signals particle by particle.)
For series [2], the system named is cyclin D1, c-Myc, p21, cleaved caspase-3. Description: Quantitative western blot of β-catenin target proteins and cleaved caspase-3. The class given is cell-based, mouse. An excerpt:
Positively responsive target genes cyclin-D l and c-Myc, and the negatively responsive gene, p21, respond with the restoration of partial loss of function by depleted APC activity after 9-bromonoscapine treatment. […] Furthermore, caspase-3 was activated as measured by the rising levels of cleaved active caspase-3.
On the technique in general: In western blotting, separated proteins are transferred to a membrane and probed.

For series [3], the system named is Apc^Min/+ MEFs. The experiment in a line: Confocal microscopy of MT arrays and chromosomes. The class given is cell-based, mouse. Particulars: 48 hours of treatment, no recovery after drug removal.
A further series relates to Apc^Min/+ mice. Description: Intestinal polyp/adenoma study in Apc^Min/+ mice. Particulars: for adenoma load, distal intestine: control 12.5±2.9; for adenoma load, distal intestine / adenoma load, proximal intestine: p<0.01; for adenoma load, proximal intestine: control 32.2±2.3. Format: in vivo, mouse. How it is done:
Mice were treated either with the vehicle solution alone (control) or 150 mg/kg body weight of 9-bromonoscapine. The mice were analyzed for the number of polyps throughout the gastrointestinal tract of animals. […] Representative bright filed micrographs of hematoxylin and eosine stained 5 μm cross sections from the intestine of vehicle treated control group (FIG. 3A ii, left panel) and 9-bromonoscapine treated group (FIG. 3A ii, right panel) show hyperplastic tissue lesions. In 9-bromonoscapine treated animals, the lesions were not clustered and, when found, seem much more restricted to the individual microvilli and were subdued in appearance (FIG. 3A ii, right panel).
To distinguish between neopolyposis post-treatment versus the growth of apparently existing polyps, two treatment regimens were followed. Treated 1: 9-bromonoscapine oral treatment (150 mg/kg body weight) began after 8 weeks of age and continued daily for 12 weeks prior to the experimental end point (in 20 weeks): Treated 2: 9-bromonoscapine oral administration began 21 days after birth at the same dose level for time matched period until the experimental end point. At this time, animals were euthanized and the entire GI tract was dissected out and flushed with PBS. The intestine was then removed from the colon and cut into three equal segments: proximal, medial, and distal. The colon and all three segments of the intestine were cut open longitudinally, stained with methylene blue prior to examination under a dissecting microscope fitted with a micrometer to aid the measurements. The vertex and co-vertex of each elliptical lesion was measured. The area was then calculated by multiplying the vertex, co-vertex and π (3.14). […] There was no visible difference between the groups of treated 1 and treated 2. The colonic adenomas are known to be rare in Apc^Min/+ mouse models.

Series [4] deals with Apc^Min/+ MEFs. Description: FACS analysis of DNA content. Format: cell-based, mouse.
For the next series, the system named is tubulin. Particulars: without changing total microtubule polymer mass; cited from earlier work.
Series [5] deals with WT MEFs. The experiment in a line: Trypan blue exclusion viable/dead cell count. Format: cell-based, mouse. Particulars: 48 hours. The method, then:
(§1) Murine embryonic fibroblasts (MEFs) isolated from Apc^Min/+ mice and wild type mice were treated with either vehicle solution of DMSO or varying concentrations of 9-bromonoscapine for 48 hours. Viable and dead cells were counted in triplicate using exclusion of the vital dye, trypan blue. […] This provided a therapeutic window (5-50 μM) for selective killing of Apc^Min/+ MEFs while causing minimal damage to the WT MEFs (FIG. 1A).

Series [6] has as its system Apc^Min/+ MEFs. The experiment in a line: Trypan blue exclusion viable/dead cell count. Format: cell-based, mouse. The method, then: as §1
Series [7] has as its system WT MEFs. Description: Confocal microscopy of MT arrays and chromosomes. Format: cell-based, mouse. Particulars: reversed 24 hours after withdrawal.
Series [8] has as its system β-catenin levels in Apc^Min/+ MEFs. The experiment in a line: Quantitative western blot of β-catenin levels. Format: cell-based, mouse.
The test system of series [9] is β-catenin activity in HCT116 cells. Description: Tcf4/β-catenin responsive luciferase reporter assay. Particulars: 8 hours after treatment. The class given is cell-based. An excerpt: (§2) HCT116 cells harbor an in-frame deletion of one phosphorylation site (Ser^45) in β-catenin that renders is partially active but has wild type APC. […] Because β-catenin is a negative regulator of CDKs inhibitor p21, p21 levels will rise upon restored downregulation of β-catenin and the cell cycle progression will be inhibited allowing cellular apoptosis (FIG. 2A). […] Hohla et al., Cell Cycle, 2009, 8(19):3149-3156.
(§3) This decrease in β-catenin levels does translate in reduction of its activity. A reporter gene luciferase under the control of three cloned copies of a conserved Tcf4/β-catenin responsive element was used and compared with an internal control, i.e., another reporter Renilla activity driven by a (β-catenin independent) promoter (CMV) in all three cell types tested (HCT116, DLD, Apc^Min/+ MEFs).
On the technique in general: Reporter assays use an easily measured gene product as a stand-in for the process of interest.

Series [10] deals with β-catenin activity in DLD1 cells. The description is as above. Format: cell-based. Particulars: p<0.01.
From the text: as §2, §3

The subject of series [11] is β-catenin activity in Apc^Min/+ MEFs. Described as above. Format: cell-based, mouse.
From the text: as §2, §3

The test system of series [12] is WT MEFs. Description: Annexin V-Alexa Fluor488 / propidium iodide apoptosis FACS. The class given is cell-based, mouse. Particulars: 50 μM, 48 hour treatment. How it is done:
(§4) Apoptotic cells that externalize the normal internal membrane lipid, phosphatidylserine, were analyzed by binding a fluorescently conjugated PS-binding protein, Annein V-Alexa Fluor488. These cells can be distinguished from the late apoptotic cells that also allow the DNA dye, Propidium iodide (PI) to penetrate the cell membranes allowing intracellular DNA to bind it. As shown in FIG. 1D i-ii, 73% of Apc^Min/+ MEFs were in early and late stages of apoptosis after a 48 hour treatment with 9-bromonoscapine (50 μM) as compared to a modest 21.6% WT MEFs under identical treatment regimen (FIG. 1D i-ii). 9-Bromonoscapine causes a selective cell death (apoptosis) in MEFs isolated from Apc^Min/+ mice when compared to the WT MEFs providing a therapeutic window from 5-50 μM range.

In series [13] the test system is Apc^Min/+ MEFs. Described as above. Particulars: 50 μM, 48 hour treatment. The class given is cell-based, mouse. The method, then:
as §4

The nature of series [14]: Toxicology: histopathology, organ function, hematology. The class given is in vivo, mouse. How it is done:
Hematoxylin and eosin stained 5 μm sections of paraffin-embedded brain, lung, liver, kidney, thymus, spleen, heart, and sciatic nerve tissues were analyzed. […] Organ associated toxicity was assessed by measuring organ functions in vehicle-treated and 9-bromonoscapine treated groups. Liver function tests (total bilirubin, alanine transaminase, aspartate aminotransferase, and alkaline phosphate levels) and renal functions tests (blood urea nitrogen and creatinine levels) were similar between drug treated and vehicle-treated groups.

Setting [15] is: Treated 1: oral 150 mg/kg daily from 8 weeks of age for 12 weeks.
The mark [16] stands for this setting: Treated 2: oral 150 mg/kg from 21 days after birth to end point.
[17] abbreviates: drug treated vs vehicle-treated.

pIC50: −log10 of the molar value. Entries after “also recorded” stand apart in the source; their conditions may differ.

Consider `COc1ccc2c(c1OC)C(=O)OC2C1c2c(cc3c(c2OC)OCO3)CCN1C` (stereo not drawn) [noscapine, 3-(4-methoxy-6-methyl-5,6,7,8-tetrahydro-[1,3]dioxolo[4,5-g]isoquinolin-5-yl)-6,7-dimethoxyisobenzofuran-1(3H)-one], for which, in the series on WT MEFs [1], the “cell cycle distribution (DNA content)” value is “reversible G2/M arrest”.
`COc1ccc2c(c1OC)C(=O)OC2C1c2c(c(Br)c3c(c2OC)OCO3)CCN1C` (stereo not drawn) [9-bromonoscapine, 3-(9-bromoe-4-methoxy-6-methyl-5,6,7,8-tetrahydro-[1,3]dioxolo[4,5-g]isoquinolin-5-yl)-6,7-dimethoxyisobenzofuran-1(3H)-one]: the c-Myc protein level result in series [2] is “down”. The “caspase-3 activation (cleaved active caspase-3)” value in series [2] is “activated”. In addition, the “cyclin D1 protein level” value in series [2] is “down”. Also, the p21 level entry in series [2] is “elevated”. Further, the mitotic phenotype entry is listed as “highly disorganized, often multipolar mitoses” in the series with Apc^Min/+ MEFs [3] and “typical mitotic arrest with bipolar prometaphase spindles” in the series with WT MEFs [7]. Moreover, in the series on Apc^Min/+ mice (150 mg/kg body weight, methylene blue stained intestine), the “number and overall areas of intestinal lesions” value is reported as “pronounced decrease”. In the series on Apc^Min/+ mice (150 mg/kg, basal areas of the villus), the “apoptotic foci in lesioned tissue (cleaved caspase 3 immunohistochemistry)” value is given as “additional copious apoptotic foci”. The “adenoma load, distal intestine” value in the series with Apc^Min/+ mice (setting [15]) amounted to 5.2±0.6 mm2; with Apc^Min/+ mice (setting [16]), 5.2±0.8 mm2. The “adenoma load, proximal intestine” value was found to be 13.7±1.4 mm^2 in the series on Apc^Min/+ mice (setting [15]) and 11.8±0.8 mm^2 in the series with Apc^Min/+ mice (setting [16]). Besides, the “total number of adenomas” value in the series with Apc^Min/+ mice (both treatment groups (Treated 1, Treated 2) vs sham-treated controls, oral 150 mg/kg) is given as “significant decline”. Besides, the “number of big lesions (>3 mm^2 and >1 mm^2)” value in the series with Apc^Min/+ mice (size distribution bins, oral 150 mg/kg) was “significant decreases”. For the same compound, the “adenoma within the colon” value with Apc^Min/+ mice (treated vs control) was “did not reveal any apparent differences”. For the same compound, the “cell cycle distribution (DNA content)” value in the series on Apc^Min/+ MEFs [4] was “a decline in G1 and a rise in G2/M”; in the series on WT MEFs [1], “a decline in G1 and a rise in G2/M”. In addition, the “sub-G1 DNA content” value in the series with Apc^Min/+ MEFs [4] (48 hours of treatment) is given as “distinct shift of cells to a sub-G1 DNA content of <2N”. The “tubulin binding affinity relative to noscapine” value in the series with tubulin was “higher affinity than noscapine”. Also, the pIC50 is 3.87 in the series with WT MEFs [5] and 4.54 with Apc^Min/+ MEFs [6] (Apc^Min/+ MEFs, 48 hours, trypan blue exclusion). Moreover, the “therapeutic window for selective killing of Apc^Min/+ MEFs” value in the series with Apc^Min/+ MEFs [6] (minimal damage to WT MEFs) was in the range of 5 to 50 µM. Also, the “sensitivity of Apc^Min/+ MEFs relative to WT MEFs” value in the series with Apc^Min/+ MEFs [6] (ratio of IC50 values, 48 hours) turned out to be 4.7 times. In addition, the β-catenin levels result in series [8] was “two-fold decrease; also recorded: fell to half the original levels”. Further, the “decline in β-catenin activity” value in series [9] turned out to be 31%. Further, the “β-catenin activity lowered to” value was 48% in series [10] and 59% in series [11] (Apc^Min/+ MEFs, p<0.01). Moreover, in series [11] (Apc^Min/+ cells), the “β-catenin activity (in words)” value is “fell to half the original levels”. Further, the entries for the “cells in early and late stages of apoptosis” value with WT MEFs [12] and with Apc^Min/+ MEFs [13] were 21.6% and 73%, respectively. In addition, the “systemic homeostasis (albumin, total protein, glucose) and electrolyte balances (Na+, K+, TCO2)” value in series [14] (among the three groups) is listed as “not distinguishable profiles”. Further, the “tissue architecture (H&E sections of brain, lung, liver, kidney, thymus, spleen, heart, sciatic nerve)” value in series [14] (blinded observations, treated vs vehicle) is “did not reveal any significant differences”. In series [14] (setting [17]), the “liver function tests (total bilirubin, alanine transaminase, aspartate aminotransferase, alkaline phosphate levels)” value is “similar”. Besides, in series [14] (setting [17]), the “renal functions tests (blood urea nitrogen and creatinine levels)” value is listed as “similar”. Besides, the “WBC, RBC counts, hemoglobin concentration, hematocrit, platelet counts” value in series [14] (treated vs vehicle) was “no significant differences”.
